Laboratory results published in ChEMBL document CHEMBL1201862, “PubChem BioAssay data set” (2004).
Activity calls are given as the source filed them.

What was measured:
HEK293 [1] = assay: cells; type: functional, cell-based; details: Homo sapiens
[2] = target: T1, Nuclear receptor subfamily 0 group B member 1 (Homo sapiens, UniProt P51843); assay: Luminescence-based cell-based high throughput dose response assay for inhibitors of the orphan nuclear receptor subfamily 0, group B, member 1 (DAX1; NR0B1). [Related pubchem assays (depositor defined):AID504766, AID504790]; type: functional
T1 sequence (P51843 whole entry): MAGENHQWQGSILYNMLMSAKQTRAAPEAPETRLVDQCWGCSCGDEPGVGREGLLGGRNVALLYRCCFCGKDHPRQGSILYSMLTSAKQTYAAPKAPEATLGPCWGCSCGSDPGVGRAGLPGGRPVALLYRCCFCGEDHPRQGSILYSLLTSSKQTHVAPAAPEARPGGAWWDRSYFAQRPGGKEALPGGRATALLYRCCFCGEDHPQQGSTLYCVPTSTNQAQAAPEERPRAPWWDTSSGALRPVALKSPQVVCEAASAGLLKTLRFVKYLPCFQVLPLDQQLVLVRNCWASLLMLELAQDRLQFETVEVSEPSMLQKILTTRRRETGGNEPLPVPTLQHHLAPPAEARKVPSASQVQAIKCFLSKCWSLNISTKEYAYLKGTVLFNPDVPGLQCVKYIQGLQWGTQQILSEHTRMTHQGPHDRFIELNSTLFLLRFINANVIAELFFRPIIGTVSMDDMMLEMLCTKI

HEK293 [3] = assay: NOD2 signaling inhibitors in MDP-stimulated cells, cell-based, uHTS, luminescence (AID 2001); type: functional; details: Homo sapiens
HEK293 [4] = assay: NOD1 signaling inhibitors, primary screen, cell-based, luminescence, uHTS (AID 1578); type: functional; details: Homo sapiens
HEK293 [5] = assay: cells; type: functional, cell-based; details: Homo sapiens; remark: listed apart in the source
HEK293 [6] = assay: cells; type: functional, cell-based; details: Homo sapiens; remark: listed apart in the source
HEK293 [7] = assay: cells; type: functional, cell-based; details: Homo sapiens; remark: listed apart in the source
[8] = target: T2, Rac GTPase-activating protein 1 (Homo sapiens, UniProt Q9H0H5); assay: MgcRacGAP GTPase-activating activity inhibitors, confirmation, biochemical, ADP Hunter fluorescence, primary and confirmatory (AID 624330); type: functional
T2 sequence (Q9H0H5 whole entry): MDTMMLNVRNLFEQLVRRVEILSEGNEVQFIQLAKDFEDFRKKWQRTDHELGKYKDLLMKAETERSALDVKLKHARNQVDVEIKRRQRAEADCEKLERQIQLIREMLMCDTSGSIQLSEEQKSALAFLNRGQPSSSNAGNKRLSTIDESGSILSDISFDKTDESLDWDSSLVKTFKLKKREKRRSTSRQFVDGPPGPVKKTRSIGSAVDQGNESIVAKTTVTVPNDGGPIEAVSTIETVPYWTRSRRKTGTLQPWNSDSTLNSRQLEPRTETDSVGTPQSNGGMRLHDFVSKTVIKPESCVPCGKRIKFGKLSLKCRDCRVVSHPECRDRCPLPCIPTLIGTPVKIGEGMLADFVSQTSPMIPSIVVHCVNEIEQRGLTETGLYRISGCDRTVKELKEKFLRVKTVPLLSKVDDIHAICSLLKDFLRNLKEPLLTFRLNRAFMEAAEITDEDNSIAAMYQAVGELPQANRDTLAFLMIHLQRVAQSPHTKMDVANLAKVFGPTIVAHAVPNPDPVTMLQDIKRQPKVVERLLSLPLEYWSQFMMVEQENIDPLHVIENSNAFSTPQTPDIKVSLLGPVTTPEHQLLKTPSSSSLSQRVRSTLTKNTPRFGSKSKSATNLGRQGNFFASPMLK

[9] = target: T3, Corticotropin-releasing factor receptor 2/Corticotropin-releasing factor-binding protein (Homo sapiens, UniProt P24387+Q13324); assay: Dose Response confirmation of uHTS hits for small molecule antagonists of the CRF-binding protein and CRF-R2 receptor complex.; type: functional; details: read-out: IC50_Mean
T3 sequence (Q13324 whole entry): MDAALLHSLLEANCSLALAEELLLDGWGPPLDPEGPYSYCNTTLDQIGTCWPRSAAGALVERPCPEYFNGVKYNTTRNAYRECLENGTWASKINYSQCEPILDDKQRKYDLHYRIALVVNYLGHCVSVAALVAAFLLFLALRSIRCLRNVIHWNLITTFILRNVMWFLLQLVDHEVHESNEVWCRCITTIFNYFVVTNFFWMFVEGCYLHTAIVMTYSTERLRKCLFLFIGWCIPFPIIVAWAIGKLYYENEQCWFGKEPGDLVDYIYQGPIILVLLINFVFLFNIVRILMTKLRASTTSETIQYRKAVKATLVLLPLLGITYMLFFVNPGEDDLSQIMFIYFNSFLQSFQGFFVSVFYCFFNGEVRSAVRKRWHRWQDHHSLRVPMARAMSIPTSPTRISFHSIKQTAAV
T3 sequence (P24387 whole entry): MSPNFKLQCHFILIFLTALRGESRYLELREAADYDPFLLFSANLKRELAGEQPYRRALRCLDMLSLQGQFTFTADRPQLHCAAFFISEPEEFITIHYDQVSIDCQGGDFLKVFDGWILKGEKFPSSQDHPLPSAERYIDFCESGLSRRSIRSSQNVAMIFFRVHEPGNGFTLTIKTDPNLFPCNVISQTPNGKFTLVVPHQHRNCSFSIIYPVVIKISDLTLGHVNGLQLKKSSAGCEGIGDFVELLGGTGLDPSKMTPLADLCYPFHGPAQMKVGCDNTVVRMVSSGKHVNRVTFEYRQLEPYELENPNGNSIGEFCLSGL

[10] = CRF-BP/CRF-R2 complex antagonists, dose response, cell-based, uHTS hits, 384-well (AID 651639); type: functional, Homo sapiens; details: read-out: IC50_Mean
[11] = target: Nucleotide-binding oligomerization domain-containing protein 2 (Homo sapiens, UniProt Q9HC29); assay: NOD2 signaling inhibitors, cell-based, luminescence, uHTS, HEK293 (AID 1566); type: functional
[12] = target: T3, Corticotropin-releasing factor receptor 2/Corticotropin-releasing factor-binding protein; assay: activators of CRF receptor 2 with binding protein – uHTS hits, confirmation (AID 602473); type: functional; details: read-out: EC50_Mean
[13] = HeLa cell cytotoxicity, dose response, cytotoxicity control for MgcRacGAP inhibitor project (AID 624300); type: functional
[14] = target: Fructose-bisphosphate aldolase (Mycobacterium tuberculosis, UniProt P9WQA3); assay: Fluorescence-based biochemical high throughput dose response assay for inhibitors of the fructose-bisphosphate aldolase (FBA) of M. tuberculosis.; type: functional
BJ [15] = assay: cells; type: functional, cell-based; details: Homo sapiens
BJ [16] = assay: cytotoxicity toward BJ-TERT-LT-ST fibroblasts, dose response, cell-based, RAS-independent, luminescence (AID 1935); type: functional; details: Homo sapiens;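 also: BJ fibroblasts immortalized with TERT plus LT and ST oncogenes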
Streptococcus = assay: Group A Streptococcus viability loss, dose response, counter-screen for streptokinase expression inhibitor project, luminescence, BacTiterGlo (AID 1915); type: functional, organism-based;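 also: potency for reduction of bacterial viability or growth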
[17] = cytotoxicity toward DRD oncogenic fibroblasts, dose response, cell-based, non-viral oncogenic, luminescence (AID 1934); type: functional; details: Homo sapiens
BJ [18] = assay: cytotoxicity toward Ras-transformed BJeLR fibroblasts, dose response, cell-based, alamar blue fluorescence, cherrypicked samples (AID 2631); type: functional; details: Homo sapiens;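 also: confirmatory dose-response assay in RAS-dependent BJ fibroblasts engineered with TERT, LT and ST, with cytotoxicity read by fluorescence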
[19] = microbe, parasite or virus in culture; type: functional; details: Mycobacterium tuberculosis
[20] = system: Streptococcus sp. 'group A'; assay: growth inhibition of control SK(-) GAS strain, dose response, counter-screen for streptokinase expression inhibitor project, luminescence, kanamycin, BacTiterGlo, confirmation (AID 1900); type: functional, organism-based
BJ [21] = assay: cytotoxicity toward BJ-TERT fibroblasts, dose response, cell-based, RAS-independent, luminescence (AID 1933); type: functional; details: Homo sapiens
Escherichia coli = assay: microbe, parasite or virus in culture
[22] = HEK293T cell cytotoxicity, dose response, cytotoxicity control for HIV Vif inhibitor project, cherry-picks (AID 652208); type: functional, cell-based
Cryptococcus neoformans = assay: PubChem AID 686997; type: functional, organism-based
[23] = target: T4, High affinity choline transporter 1 (Homo sapiens, UniProt Q9GZV3); assay: CHT inhibitors, dose response, cell-based, 5-point CRC, membrane potential dye (AID 504840); type: functional
T4 sequence (Q9GZV3 whole entry): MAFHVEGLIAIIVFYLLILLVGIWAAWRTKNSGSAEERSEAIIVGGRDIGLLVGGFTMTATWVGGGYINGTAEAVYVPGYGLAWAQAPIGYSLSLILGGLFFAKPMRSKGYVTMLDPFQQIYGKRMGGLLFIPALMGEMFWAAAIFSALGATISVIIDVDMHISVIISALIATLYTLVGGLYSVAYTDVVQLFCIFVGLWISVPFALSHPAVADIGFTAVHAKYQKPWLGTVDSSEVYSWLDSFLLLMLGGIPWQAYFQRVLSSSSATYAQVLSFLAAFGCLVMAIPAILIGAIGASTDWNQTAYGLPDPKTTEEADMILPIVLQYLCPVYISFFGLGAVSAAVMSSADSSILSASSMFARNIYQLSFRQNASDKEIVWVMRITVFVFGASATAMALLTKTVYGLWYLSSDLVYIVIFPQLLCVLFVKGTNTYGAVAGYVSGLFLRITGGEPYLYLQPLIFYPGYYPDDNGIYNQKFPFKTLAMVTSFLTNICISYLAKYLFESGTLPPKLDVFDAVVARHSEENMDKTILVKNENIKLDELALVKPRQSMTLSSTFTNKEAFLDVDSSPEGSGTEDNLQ

[24] = target: T4, High affinity choline transporter 1; assay: CHT inhibitors, dose response, cell-based, 10-point CRC, membrane potential dye (AID 588401); type: functional;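 also: membrane potential dye fluorescence of choline-evoked depolarization via CHT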

Nucleotide-binding oligomerization domain-containing protein 2, sequence (Q9HC29 whole entry, the tested form may be a part): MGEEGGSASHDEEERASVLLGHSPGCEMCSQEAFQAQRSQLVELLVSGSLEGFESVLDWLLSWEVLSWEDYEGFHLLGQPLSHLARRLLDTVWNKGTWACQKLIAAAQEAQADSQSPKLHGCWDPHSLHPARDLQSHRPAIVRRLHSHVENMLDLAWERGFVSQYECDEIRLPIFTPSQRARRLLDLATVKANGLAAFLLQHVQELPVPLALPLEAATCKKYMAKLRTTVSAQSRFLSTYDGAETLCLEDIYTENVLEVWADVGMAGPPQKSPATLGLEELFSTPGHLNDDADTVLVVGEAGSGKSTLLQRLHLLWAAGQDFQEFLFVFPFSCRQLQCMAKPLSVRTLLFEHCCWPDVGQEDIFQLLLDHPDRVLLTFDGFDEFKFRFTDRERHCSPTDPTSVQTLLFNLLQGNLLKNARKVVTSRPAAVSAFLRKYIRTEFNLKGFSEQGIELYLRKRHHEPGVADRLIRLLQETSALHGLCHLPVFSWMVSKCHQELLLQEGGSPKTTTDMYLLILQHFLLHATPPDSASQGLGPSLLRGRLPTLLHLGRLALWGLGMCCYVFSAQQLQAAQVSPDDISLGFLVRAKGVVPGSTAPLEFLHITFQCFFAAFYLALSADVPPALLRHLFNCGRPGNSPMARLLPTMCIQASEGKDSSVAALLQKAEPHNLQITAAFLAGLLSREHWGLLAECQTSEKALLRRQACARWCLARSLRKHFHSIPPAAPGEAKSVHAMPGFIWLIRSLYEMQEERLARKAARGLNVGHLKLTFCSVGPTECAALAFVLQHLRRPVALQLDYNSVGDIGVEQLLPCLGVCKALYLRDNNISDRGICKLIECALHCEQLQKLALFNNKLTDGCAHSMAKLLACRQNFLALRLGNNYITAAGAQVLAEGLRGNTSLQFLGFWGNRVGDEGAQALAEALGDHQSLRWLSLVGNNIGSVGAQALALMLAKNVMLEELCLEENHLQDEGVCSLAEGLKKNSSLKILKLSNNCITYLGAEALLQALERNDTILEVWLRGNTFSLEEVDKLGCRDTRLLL
Fructose-bisphosphate aldolase, sequence (P9WQA3 whole entry): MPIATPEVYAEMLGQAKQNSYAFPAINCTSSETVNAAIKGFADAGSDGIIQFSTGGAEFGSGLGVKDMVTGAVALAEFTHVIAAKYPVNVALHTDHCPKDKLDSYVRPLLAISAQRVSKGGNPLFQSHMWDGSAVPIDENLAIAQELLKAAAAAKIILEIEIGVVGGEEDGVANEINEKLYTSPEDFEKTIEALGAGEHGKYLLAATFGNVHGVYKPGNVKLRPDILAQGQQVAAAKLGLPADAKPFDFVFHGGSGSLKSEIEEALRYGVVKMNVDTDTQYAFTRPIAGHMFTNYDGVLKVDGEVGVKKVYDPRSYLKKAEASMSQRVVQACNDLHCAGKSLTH

For `O=C(COC(=O)CN1C(=O)NC2(CCCC2)C1=O)Nc1ccccc1C(F)(F)F`, the IC50 (HEK293 [1]) was > 67.5 µM (inactive) and the IC50 [2] was > 67.5 µM (inactive).

With `Cc1[nH]n(-c2cccc(Cl)c2)c(=O)c1-c1ccc(Cl)cc1` the IC50 (HEK293 [3]) was 9.97 µM (inactive), the EC50 (HEK293 [4]) was 2.43 µM (active) and the IC50 (HEK293 [5]) was 14.2 µM (active). The IC50 (HEK293 [6]) was > 20 µM (inactive), the IC50 (HEK293 [7]) was > 20 µM (inactive) and the IC50 [8] was 80 µM (active). The IC50 [9] was 0.98 µM (active), the IC50 [10] was > 20 µM (inactive) and the EC50 [11] was 12.8 µM (active). The EC50 [12] was > 53 µM (inactive) and the CC50 [13] was 100 µM (active).

In the case of `COc1ccc2nc3c(O)n4c(nc-3c2c1)SCC4`, the IC50 [14] is reported as 1.4 µM (active).

With `Cc1nc(N)nc(N)c1CCCc1ccc(Cl)c(Cl)c1` the EC50 (BJ [15]) was 1.36 µM (active), the EC50 (BJ [16]) was > 150 µM (not active) and the EC50 (Streptococcus) was 4.01 µM (active). For the same molecule, the EC50 [17] was 3.05 µM (active), the EC50 (BJ [18]) was > 133 µM (inactive) and the CC50 [19] was 4.07 µM (active). The EC50 [20] was 1.03 µM (active) and the EC50 (BJ [21]) was 17 µM (active).

With `O=C(Nc1cc(S(=O)(=O)N2CCOCC2)ccc1N1CCCC1)c1ccc(Cl)cc1` the AC50 (Escherichia coli) was 25.2 µM (active).

In the case of `CCc1ccc2[nH]c3nc(SCC(=O)NNC(=O)c4ccc(C(C)(C)C)cc4)nnc3c2c1`, the AC50 [22] is reported as 28.6 µM (active).

With `COC(=O)C1=C(C)N(Cc2ccc(F)cc2)C(=S)NC1c1cccc(Cl)c1` (stereo not drawn) the AC50 (Cryptococcus neoformans) was 49.5 µM (active) and the AC50 (Cryptococcus neoformans; Cryptococcus neoformans) was > 70 µM (inactive).

With `Cc1ccc(NS(=O)(=O)c2cccc(C(=O)NCC(c3ccco3)N3CCCCC3)c2)cc1` (stereo not drawn) the IC50 [23] was 9.8 µM (active) and the IC50 [24] was 5.39 µM (active).
